In patent publication US20240101576A1, “HETEROCYCLIC INHIBITORS OF EGFR AND/OR HER2, FOR USE IN THE TREATMENT OF CANCER” (Scorpion Therapeutics, Inc., priority 2020, published 2024) one finds IC50 data, which are given here for 19 compounds.

Structures are written as SMILES. A value given as a limit tells only on which side of the number the result lay.

Type in all cases: cell-based
Experiment [1] has as its target T1, EGFR exon 20 FQEA Ins A763_V764 (Ba/F3 cells) (Homo sapiens, UniProt P00533, INS763FQEA).
T1 construct: expressed in transfected cells; host or cells: Ba/F3 (murine pro-B cells), retroviral transduction, puromycin selection, IL3-independent pool
The experiment is described as follows: Inhibitor activity on EGFR-dependent cell growth (CellTiter-Glo, 72 h), Ba/F3 EGFR exon 20 FQEA Ins. To be noted: read-out: BaF3 FQEA IC50. Put shortly:
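Cell viability was measured by CellTiter-Glo after a three-day treatment. The IL3-free Ba/F3 lines carried L858R, L858R/C797S, exon 19 deletion or FQEA insertion EGFR and were seeded at 400, 600, 800 and 800 cells/well respectively.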

Experiment [2] concerns the target T2, EGFR exon 20 ASV Ins V769_D770 (Ba/F3 cells) (Homo sapiens, UniProt P00533, INS769ASV).
T2 construct: expressed in transfected cells; host or cells: Ba/F3 (murine pro-B cells), retroviral transduction, puromycin selection, IL3-independent pool
Nature of the experiment: Inhibitor activity on EGFR-dependent cell growth (CellTiter-Glo, 72 h), Ba/F3 EGFR exon 20 ASV Ins. To be noted: read-out: BaF3 ASV IC50. Put shortly:
(§1)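 IC50s derive from a sigmoidal dose–response fit of CellTiter-Glo signal. The signal was normalised between […]-treated cells and cell-free medium. Ba/F3 mutant-EGFR cells, seeded at 400–800/well depending on the line, had 72 h of exposure to a 10-point, 3-fold compound series.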

Experiment [3] has as its target T3, EGFR exon 20 NPG Ins D770_N771 (Ba/F3 cells) (Homo sapiens, UniProt P00533, INS770NPG).
T3 construct: expressed in transfected cells; host or cells: Ba/F3 (murine pro-B cells), retroviral transduction, puromycin selection, IL3-independent pool
The experiment is described as follows: Inhibitor activity on EGFR-dependent cell growth (CellTiter-Glo, 72 h), Ba/F3 EGFR exon 20 NPG Ins. The note with it: read-out: BaF3 NPG IC50. Put shortly:
as §1

In experiment [4] the target is T4, EGFR WT (Ba/F3 cells) (Homo sapiens, UniProt P00533).
T4 construct: expressed in transfected cells; host or cells: Ba/F3 (murine pro-B cells), retroviral transduction, puromycin selection, maintained with EGF
Nature of the experiment: Inhibitor activity on EGFR-dependent cell growth (CellTiter-Glo, 72 h), Ba/F3 EGFR WT. The note with it: read-out: BaF3 WT IC50. The method, boiled down: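 This growth assay used Ba/F3 cells that depend on wild-type EGFR and are kept in EGF without IL3. Compounds were made up as 10 mM DMSO stocks and diluted 3-fold over 10 points. 120 nL went onto 600 cells/well. After 72 hours, 40 μL CellTiter-Glo was added and luminescence read on EnVision after 30 min.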

For experiment [5], the target named is T5, EGFR exon 20 SVD Ins D770_N771 (Ba/F3 cells) (Homo sapiens, UniProt P00533, INS770SVD).
T5 construct: expressed in transfected cells; host or cells: Ba/F3 (murine pro-B cells), retroviral transduction, puromycin selection, IL3-independent pool
Nature of the experiment: Inhibitor activity on EGFR-dependent cell growth (CellTiter-Glo, 72 h), Ba/F3 EGFR exon 20 SVD Ins. To be noted: read-out: BaF3 SVD IC50. The method, boiled down: as §1
On the technique in general: In ATP-based viability assays light output follows the ATP content of the culture.

T5 sequence (P00533 with tags, fused parts or gaps INS770SVD): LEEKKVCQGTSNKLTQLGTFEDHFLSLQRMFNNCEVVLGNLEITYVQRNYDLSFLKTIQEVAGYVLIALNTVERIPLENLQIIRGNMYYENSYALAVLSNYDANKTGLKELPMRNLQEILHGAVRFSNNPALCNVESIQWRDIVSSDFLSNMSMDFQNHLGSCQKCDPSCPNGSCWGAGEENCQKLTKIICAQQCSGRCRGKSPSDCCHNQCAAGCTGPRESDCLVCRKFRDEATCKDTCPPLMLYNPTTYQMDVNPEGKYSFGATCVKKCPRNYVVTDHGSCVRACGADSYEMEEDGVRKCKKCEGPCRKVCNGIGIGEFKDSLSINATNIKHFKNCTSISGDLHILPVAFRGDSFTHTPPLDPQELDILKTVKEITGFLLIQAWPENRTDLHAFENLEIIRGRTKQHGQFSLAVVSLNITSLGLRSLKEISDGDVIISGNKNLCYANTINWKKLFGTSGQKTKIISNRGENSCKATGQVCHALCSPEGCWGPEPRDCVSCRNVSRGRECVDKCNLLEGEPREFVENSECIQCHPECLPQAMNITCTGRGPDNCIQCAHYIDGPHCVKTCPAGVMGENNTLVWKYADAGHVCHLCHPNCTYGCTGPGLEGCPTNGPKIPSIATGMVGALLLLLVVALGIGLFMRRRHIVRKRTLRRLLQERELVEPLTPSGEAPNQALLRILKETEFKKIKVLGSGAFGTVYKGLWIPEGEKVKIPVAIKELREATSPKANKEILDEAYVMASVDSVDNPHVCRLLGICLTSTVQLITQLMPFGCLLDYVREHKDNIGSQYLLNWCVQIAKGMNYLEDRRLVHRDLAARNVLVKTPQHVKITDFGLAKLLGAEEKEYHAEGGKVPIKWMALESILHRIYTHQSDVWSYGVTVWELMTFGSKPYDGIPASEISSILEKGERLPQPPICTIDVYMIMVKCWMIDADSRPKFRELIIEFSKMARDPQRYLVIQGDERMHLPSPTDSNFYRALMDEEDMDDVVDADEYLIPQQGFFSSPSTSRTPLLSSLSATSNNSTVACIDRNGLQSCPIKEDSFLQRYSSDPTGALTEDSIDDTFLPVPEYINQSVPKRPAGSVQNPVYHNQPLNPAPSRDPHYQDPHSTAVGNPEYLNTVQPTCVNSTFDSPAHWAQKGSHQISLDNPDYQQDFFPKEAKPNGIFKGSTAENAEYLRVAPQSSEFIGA
T2 sequence (P00533 with tags, fused parts or gaps INS769ASV): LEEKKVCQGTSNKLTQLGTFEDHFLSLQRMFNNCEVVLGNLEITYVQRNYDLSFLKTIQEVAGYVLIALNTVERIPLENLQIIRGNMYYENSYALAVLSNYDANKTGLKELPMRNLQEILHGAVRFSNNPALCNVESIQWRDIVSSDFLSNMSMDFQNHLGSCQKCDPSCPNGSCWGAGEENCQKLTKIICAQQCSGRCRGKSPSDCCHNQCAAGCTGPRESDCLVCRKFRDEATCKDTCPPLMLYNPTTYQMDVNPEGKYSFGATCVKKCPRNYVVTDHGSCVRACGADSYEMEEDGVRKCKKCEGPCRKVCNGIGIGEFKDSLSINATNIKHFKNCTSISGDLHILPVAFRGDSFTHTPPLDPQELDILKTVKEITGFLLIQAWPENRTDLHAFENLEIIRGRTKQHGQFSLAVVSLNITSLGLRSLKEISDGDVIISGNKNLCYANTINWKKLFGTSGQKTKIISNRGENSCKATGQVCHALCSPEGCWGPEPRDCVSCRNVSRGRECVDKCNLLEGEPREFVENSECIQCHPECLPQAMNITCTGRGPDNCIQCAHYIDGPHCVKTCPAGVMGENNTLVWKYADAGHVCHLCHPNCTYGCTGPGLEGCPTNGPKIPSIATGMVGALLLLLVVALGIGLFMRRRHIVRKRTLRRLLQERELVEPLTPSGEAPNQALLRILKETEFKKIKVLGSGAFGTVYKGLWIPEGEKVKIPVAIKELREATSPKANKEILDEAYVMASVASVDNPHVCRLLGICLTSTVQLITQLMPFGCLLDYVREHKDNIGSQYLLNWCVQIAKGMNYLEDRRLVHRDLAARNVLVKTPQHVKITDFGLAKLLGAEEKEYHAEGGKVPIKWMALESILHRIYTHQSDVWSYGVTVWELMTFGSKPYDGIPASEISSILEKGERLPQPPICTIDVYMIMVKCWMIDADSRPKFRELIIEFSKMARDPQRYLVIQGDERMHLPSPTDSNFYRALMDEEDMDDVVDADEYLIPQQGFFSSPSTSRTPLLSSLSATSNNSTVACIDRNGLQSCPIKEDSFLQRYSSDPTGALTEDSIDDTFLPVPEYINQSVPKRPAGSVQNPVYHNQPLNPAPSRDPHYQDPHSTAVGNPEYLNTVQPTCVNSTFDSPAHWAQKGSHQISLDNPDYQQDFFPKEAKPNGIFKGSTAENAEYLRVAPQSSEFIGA
T4 sequence (P00533 25-1210): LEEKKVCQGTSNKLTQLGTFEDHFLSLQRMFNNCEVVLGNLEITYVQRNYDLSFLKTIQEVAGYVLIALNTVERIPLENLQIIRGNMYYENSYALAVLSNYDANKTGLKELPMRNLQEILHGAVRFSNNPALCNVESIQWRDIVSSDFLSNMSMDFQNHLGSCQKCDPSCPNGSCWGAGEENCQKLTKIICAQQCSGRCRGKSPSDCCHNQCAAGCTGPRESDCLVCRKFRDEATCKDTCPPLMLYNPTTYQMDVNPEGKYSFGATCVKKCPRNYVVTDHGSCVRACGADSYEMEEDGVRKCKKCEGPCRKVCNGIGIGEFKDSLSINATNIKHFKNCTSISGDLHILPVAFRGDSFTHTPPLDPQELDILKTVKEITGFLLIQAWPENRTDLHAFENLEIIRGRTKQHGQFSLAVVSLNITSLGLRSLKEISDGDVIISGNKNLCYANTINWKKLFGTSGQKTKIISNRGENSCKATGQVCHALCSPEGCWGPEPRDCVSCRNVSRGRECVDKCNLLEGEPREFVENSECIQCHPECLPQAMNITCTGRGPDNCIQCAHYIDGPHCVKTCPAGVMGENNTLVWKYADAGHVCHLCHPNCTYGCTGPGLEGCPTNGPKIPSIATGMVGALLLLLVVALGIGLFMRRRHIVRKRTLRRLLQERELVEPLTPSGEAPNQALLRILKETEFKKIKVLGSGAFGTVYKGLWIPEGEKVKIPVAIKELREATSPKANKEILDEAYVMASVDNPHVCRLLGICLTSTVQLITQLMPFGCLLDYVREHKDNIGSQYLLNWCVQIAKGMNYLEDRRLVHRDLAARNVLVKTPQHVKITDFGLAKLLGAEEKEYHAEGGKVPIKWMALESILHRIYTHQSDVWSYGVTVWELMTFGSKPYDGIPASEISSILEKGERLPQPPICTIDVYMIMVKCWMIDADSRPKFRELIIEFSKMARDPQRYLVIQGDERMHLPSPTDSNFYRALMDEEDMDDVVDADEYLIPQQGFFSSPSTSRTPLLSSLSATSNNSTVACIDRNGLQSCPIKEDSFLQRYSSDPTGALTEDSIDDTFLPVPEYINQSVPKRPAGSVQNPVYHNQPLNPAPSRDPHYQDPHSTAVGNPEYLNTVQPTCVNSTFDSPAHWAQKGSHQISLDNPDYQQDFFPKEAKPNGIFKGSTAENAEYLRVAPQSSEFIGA
T1 sequence (P00533 with tags, fused parts or gaps INS763FQEA): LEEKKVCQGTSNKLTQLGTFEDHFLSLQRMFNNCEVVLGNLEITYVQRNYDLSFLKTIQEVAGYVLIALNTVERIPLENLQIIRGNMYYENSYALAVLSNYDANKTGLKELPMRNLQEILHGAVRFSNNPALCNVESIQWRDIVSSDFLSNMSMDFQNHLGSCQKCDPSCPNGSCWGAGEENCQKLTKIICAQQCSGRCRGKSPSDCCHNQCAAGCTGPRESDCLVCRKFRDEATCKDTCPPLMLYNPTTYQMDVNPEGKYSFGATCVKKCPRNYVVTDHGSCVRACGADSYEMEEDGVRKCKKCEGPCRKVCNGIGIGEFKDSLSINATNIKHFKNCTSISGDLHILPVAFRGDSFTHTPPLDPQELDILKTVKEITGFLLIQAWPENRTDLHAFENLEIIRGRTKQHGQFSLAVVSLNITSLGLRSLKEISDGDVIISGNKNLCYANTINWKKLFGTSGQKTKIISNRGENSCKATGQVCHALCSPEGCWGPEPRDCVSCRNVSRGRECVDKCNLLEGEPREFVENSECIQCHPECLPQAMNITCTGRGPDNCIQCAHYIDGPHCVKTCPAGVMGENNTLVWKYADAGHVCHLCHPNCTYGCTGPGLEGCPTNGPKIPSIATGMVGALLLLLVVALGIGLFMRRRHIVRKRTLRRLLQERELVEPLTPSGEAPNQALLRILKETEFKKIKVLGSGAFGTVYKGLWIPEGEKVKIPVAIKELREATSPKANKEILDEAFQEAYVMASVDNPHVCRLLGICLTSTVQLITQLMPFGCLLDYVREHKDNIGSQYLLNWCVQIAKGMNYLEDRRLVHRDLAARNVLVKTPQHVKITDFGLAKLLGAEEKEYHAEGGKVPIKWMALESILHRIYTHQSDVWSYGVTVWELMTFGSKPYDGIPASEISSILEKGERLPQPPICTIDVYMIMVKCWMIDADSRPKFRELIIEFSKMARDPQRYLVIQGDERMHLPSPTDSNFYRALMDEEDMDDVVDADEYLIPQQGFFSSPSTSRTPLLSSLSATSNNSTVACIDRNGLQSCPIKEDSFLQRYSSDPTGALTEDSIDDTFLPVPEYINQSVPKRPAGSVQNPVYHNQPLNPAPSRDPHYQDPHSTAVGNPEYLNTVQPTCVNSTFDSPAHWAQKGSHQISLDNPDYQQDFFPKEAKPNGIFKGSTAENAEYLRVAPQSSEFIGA

The term IC50 denotes the concentration that gives 50% inhibition. Regarding `COc1c(F)cccc1Nc1c(-c2ccncc2F)[nH]c2c1C(=O)NC[C@H]2C[C@H]1CCO1` [Compound 422d, (7R)-3-[(3-fluoro-2-methoxyphenyl)amino]-2-(3-fluoropyridin-4-yl)-7-[(2S)-oxetan-2-ylmethyl]-1H,5H,6H,7H-pyrrolo[3,2-c]pyridin-4-one], the IC50 in experiment [1] is 100 to 1000 nM; in experiment [2], under 100 nM; in experiment [3], under 100 nM; in experiment [4], 100 to 1000 nM; in experiment [5] it was under 100 nM.

In the case of `COc1c(Cl)cccc1Nc1c(-c2ccnc3ccc(O[C@H]4CCOC4)nc23)[nH]c2c1C(=O)NCC2` [compound 739, 3-[(3-chloro-2-methoxyphenyl)amino]-2-[6-[(3S)-oxolan-3-yloxy]-1,5-naphthyridin-4-yl]-1H,5H,6H,7H-pyrrolo[3,2-c]pyridin-4-one], the IC50 in experiment [1] was 100 to 1000 nM; in experiment [2] it was under 100 nM; in experiment [3], under 100 nM; in experiment [4], 100 to 1000 nM; in experiment [5] it was under 100 nM.

Regarding `COc1c(Cl)cc(F)cc1Nc1c(-c2ccnc(N)n2)[nH]c2c1C(=O)NCC2` [Compound 714, 2-(2-aminopyrimidin-4-yl)-3-[(3-chloro-5-fluoro-2-methoxyphenyl)amino]-1H,5H,6H,7H-pyrrolo[3,2-c]pyridin-4-one; trifluoroacetic acid], the IC50 in experiment [1] was 100 to 1000 nM; in experiment [2], 100 to 1000 nM; in experiment [3], under 100 nM; in experiment [4] it was over 1000 nM; in experiment [5], 100 to 1000 nM.

In the case of `COc1c(Cl)cccc1Nc1c(-c2ccnc(NC[C@@H]3CCO3)n2)[nH]c2c1C(=O)NCC2` [compound 719], the IC50 in experiment [1] is over 1000 nM; in experiment [2], 100 to 1000 nM; in experiment [3] it was 100 to 1000 nM; in experiment [4], over 1000 nM; in experiment [5], over 1000 nM.

Consider `COc1c(Cl)cccc1Nc1c(-c2ccnc3ccc(OC4COC4)nc23)[nH]c2c1C(=O)NCC2` [compound 732, 3-[(3-chloro-2-methoxyphenyl)amino]-2-[6-(oxetan-3-yloxy)-1,5-naphthyridin-4-yl]-1H,5H,6H,7H-pyrrolo[3,2-c]pyridin-4-one], for which the IC50 in experiment [1], in experiment [2], in experiment [3], in experiment [4] and in experiment [5] was under 100 nM each time.

Take `COc1c(Cl)cccc1Nc1c(-c2ccnc3cccnc23)[nH]c2c1C(=O)NCC2` [Compound 683, 3-[(3-chloro-2-methoxyphenyl)amino]-2-(1,5-naphthyridin-4-yl)-1H,5H,6H,7H-pyrrolo[3,2-c]pyridin-4-one]: the IC50 was under 100 nM in experiment [1]; under 100 nM in experiment [2]; under 100 nM in experiment [3]; 100 to 1000 nM in experiment [4]; under 100 nM in experiment [5].

As for `CCO[C@H](C)c1ccc2nccc(-c3[nH]c4c(c3Nc3cccc(Cl)c3OC)C(=O)NCC4)c2n1` [compound 753, 3-[(3-chloro-2-methoxyphenyl)amino]-2-[6-[(1R)-1-ethoxyethyl]-1,5-naphthyridin-4-yl]-1H,5H,6H,7H-pyrrolo[3,2-c]pyridin-4-one; trifluoroacetic acid], the IC50 in experiment [1], in experiment [2], in experiment [3], in experiment [4] and in experiment [5] was under 100 nM in each case.

Consider `COc1c(Cl)cccc1Nc1c(-c2ccnc3ccc(OC4(C)CC4)nc23)[nH]c2c1C(=O)NCC2` [Compound 767, 3-[(3-chloro-2-methoxyphenyl)amino]-2-[6-(1-methylcyclopropoxy)-1,5-naphthyridin-4-yl]-1H,5H,6H,7H-pyrrolo[3,2-c]pyridin-4-one], for which the IC50 in experiment [1], in experiment [2], in experiment [3], in experiment [4] and in experiment [5] was under 100 nM each time.

With `COc1c(Cl)cccc1Nc1c(-c2ccncc2F)[nH]c2c1C(=O)NC[C@@H]2CC1COC1` [468a], the IC50 in experiment [1] was over 1000 nM; in experiment [2], over 1000 nM; in experiment [3], 100 to 1000 nM; in experiment [4] it was over 1000 nM; in experiment [5], over 1000 nM.

Regarding `COc1c(F)cccc1Nc1c(-c2ccncc2F)[nH]c2c1C(=O)NC[C@@H]2C[C@@H]1COCCO1` [Compound 526, (7S)-7-[(2R)-1,4-dioxan-2-ylmethyl]-3-[(3-fluoro-2-methoxyphenyl)amino]-2-(3-fluoropyridin-4-yl)-1H,5H,6H,7H-pyrrolo[3,2-c]pyridin-4-one], the IC50 in experiment [1] was 100 to 1000 nM; in experiment [2] it was 100 to 1000 nM; in experiment [3], 100 to 1000 nM; in experiment [4], over 1000 nM; in experiment [5] it was 100 to 1000 nM.

On to `COc1c(Cl)cccc1Nc1c(-c2ccnc3ccc(OCC(F)(F)F)nc23)[nH]c2c1C(=O)NCC2` [compound 763, 3-[(3-chloro-2-methoxyphenyl)amino]-2-[6-(2,2,2-trifluoroethoxy)-1,5-naphthyridin-4-yl]-1H,5H,6H,7H-pyrrolo[3,2-c]pyridin-4-one], for which the IC50 was 100 to 1000 nM in experiment [1]; under 100 nM in experiment [2]; 100 to 1000 nM in experiment [3]; 100 to 1000 nM in experiment [4]; under 100 nM in experiment [5].

For the compound `C=CC(=O)N1CCC2(CC1)CNC(=O)c1c2[nH]c(-c2ccncc2F)c1Nc1cccc(F)c1F` [Compound 585, 3′-[(2,3-difluorophenyl)amino]-2′-(3-fluoropyridin-4-yl)-1-(prop-2-enoyl)-5′,6′-dihydro-1′H-spiro[piperidine-4,7′-pyrrolo[3,2-c]pyridin]-4′-one], the IC50 in experiment [2] is under 100 nM; in experiment [3], under 100 nM; in experiment [4], 100 to 1000 nM; in experiment [5], under 100 nM.

On to `COCC[C@@H]1CNC(=O)c2c1[nH]c(-c1ccncc1F)c2Nc1cccc(Cl)c1OC` [Compound 746], for which the IC50 is under 100 nM in experiment [1], under 100 nM in experiment [3] and 100 to 1000 nM in experiment [4].

In the case of `CC#CC(=O)N1CCC2(CC1)CNC(=O)c1c2[nH]c(-c2ccncc2F)c1Nc1cccc(F)c1OC` [Compound 609, 1-(but-2-ynoyl)-3′-[(3-fluoro-2-methoxyphenyl)amino]-2′-(3-fluoropyridin-4-yl)-5′,6′-dihydro-1′H-spiro[piperidine-4,7′-pyrrolo[3,2-c]pyridin]-4′-one], the half-inhibitory concentration (IC50) in experiment [2] is 100 to 1000 nM; in experiment [3] it was over 1000 nM; in experiment [4], over 1000 nM; in experiment [5] it was 100 to 1000 nM.

Turning to `CNC(=O)N1CC[C@]2(CNC(=O)c3c2[nH]c(-c2ccncc2F)c3Nc2cccc(Cl)c2OC)C1` [Compound 500, (3S)-3′-[(3-chloro-2-methoxyphenyl)amino]-2′-(3-fluoropyridin-4-yl)-N-methyl-4′-oxo-5′,6′-dihydro-1′H-spiro[pyrrolidine-3,7′-pyrrolo[3,2-c]pyridine]-1-carboxamide], the IC50 in experiment [2], in experiment [3], in experiment [4] and in experiment [5] was over 1000 nM in each case.

As to `C=CC(=O)N1CCC2(CC1)CNC(=O)c1c2[nH]c(-c2ccncc2F)c1Nc1cccc(Br)c1OC` [Compound 561, 3′-[(3-bromo-2-methoxyphenyl)amino]-2′-(3-fluoropyridin-4-yl)-1-(prop-2-enoyl)-5′,6′-dihydro-1′H-spiro[piperidine-4,7′-pyrrolo[3,2-c]pyridin]-4′-one], the IC50 in experiment [2] is under 100 nM; in experiment [3], under 100 nM; in experiment [4], 100 to 1000 nM; in experiment [5], under 100 nM.

Consider `COc1c(F)cccc1Nc1c(-c2ccnc(C)n2)[nH]c2c1C(=O)NCC2C[C@H]1COCCO1` (single isomer, unassigned) [Compound 603], for which the IC50 is under 100 nM in experiment [2], under 100 nM in experiment [3], over 1000 nM in experiment [4] and under 100 nM in experiment [5].

Regarding `C=CC(=O)N1CCC2(CC1)CNC(=O)c1c2[nH]c(-c2ccnc(N)n2)c1Nc1cccc(F)c1OC` [Compound 162, 1-acryloyl-2′-(2-aminopyrimidin-4-yl)-3′-((3-fluoro-2-methoxyphenyl)amino)-5′,6′-dihydrospiro[piperidine-4,7′-pyrrolo[3,2-c]pyridin]-4′(1′H)-one], the IC50 was under 100 nM in experiment [2], 100 to 1000 nM in experiment [3], 100 to 1000 nM in experiment [4] and 100 to 1000 nM in experiment [5].

In the case of `COc1c(Cl)cccc1Nc1c(-c2ccncc2F)[nH]c2c1C(=O)NCC2C[C@@H]1CO[C@@H](CN(C)C)CO1` (single isomer, unassigned) [Compound 563, (7R*)-3-[(3-chloro-2-methoxyphenyl)amino]-7-{[(2R,5S)-5-[(dimethylamino)methyl]-1,4-dioxan-2-yl]methyl}-2-(3-fluoropyridin-4-yl)-1H,5H,6H,7H-pyrrolo[3,2-c]pyridin-4-one], the 50% inhibitory concentration (IC50) in experiment [2] was 100 to 1000 nM; in experiment [3], 100 to 1000 nM; in experiment [4] it was over 1000 nM; in experiment [5], 100 to 1000 nM.
